We go through 2 molecules from patent publication US9988445B2, “Method of treatment of pain by administration of a CCL17 specific antibody” (The University of Melbourne, priority 2013, dated 2018).

For assay [1], the system named is mice. Put plainly: GM-CSF given intraplantarly, pain development (Incapacitance Tester). The format is in vivo. To be noted: GM-CSF 20 ng i.pl., four hours, vs. saline. The protocol:
Mice were treated with a monoclonal antibody (mAb) to CCL17 (300 μg) or with an isotype control mAb (300 μg) at the same time as being given GM-CSF and pain was measured at four hours later.
(§1) An Incapacitance Tester (Dual Weight Averager) is used to automatically and reproducibly assess the analgesic potency by measuring the weight distribution on the two hind paws.
(§2) Weight placed on each hind limb was measured over a 3 second period. 3 separate measurements taken per mouse for each time point then averaged. Results are expressed as injected limb/control limb×100. Thus a value of 100 means that equal weight is being placed on the right and the left limb. A value below 100 means less weight is being placed on the injected limb (left) compared with the control limb (right).

Assay [2] concerns mice. Put plainly: CCL17 given intraplantarly, pain development (Incapacitance Tester). The format is in vivo. The note with it: CCL17 50 ng i.pl., 6 hours, p<0.05 vs. saline. On the procedure:
as §1, §2
Pain is identified as a decrease in the ratio of weight distribution between the CCL17-injected and saline-injected paw where a percentage of less than 95 indicates pain development (see Example 1 above). Thus, CCL17 can induce pain.

Entries after “also recorded” stand apart in the source; their conditions may differ.

For the molecule GM-CSF: proinflammatory cytokine GM-CSF, in the assay with mice [1], the “pain development after i.pl. injection in the footpad” value was “develop pain”.

B1: CCL17: chemokine (C-C motif)17, also known as thymus- and activation-regulated chemokine (protein, UniProt Q92583 24-94, looked up)
C-C motif chemokine 17: ARGTNVGRECCLEYFKGAIPLRKLKTWYQTSEDCSRDAIVFVTVQGRAICSDPNNKRVKNAVKYLQSLERS
B1: the “pain development (ratio of weight distribution between CCL17-injected and saline-injected paw; less than 95 indicates pain)” value in the assay on mice [2] is given as “develop pain; also recorded: induces pain”.
